Measurements as given in patent US10159254B2, “Weed control methods” (Syngenta Participations AG, priority 2013, dated 2018).

Experiments:
SYHT0H2 soybeans [1] = test: Greenhouse: water-soluble iron compounds safening mesotrione, maximum injury; settings: in vivo
Procedure: An experiment is conducted to look at the safening effect of a variety of water-soluble iron-containing compounds. SYHT0H2 soybean plants are grown in small pots filled with a greenhouse potting mix. […] In all cases, mesotrione was applied at 420 g ai/ha and all treatments contained liquid ammonium sulphate at 2.5% v/v and NIS at 0.25% v/v. The application rates of iron-containing compounds indicated are iron equivalent rates. […] Percent injury levels were assessed 6, 9, and 16 days after treatment. Data presented are maximum injury occurring from any of the treatments at any time during the experiment.

[2] = test system: Velvetleaf (Abutilon theophrasti); test: Greenhouse weed control: HPPD inhibitors with or without Sequestrene 138Fe, velvetleaf; format: in vivo; settings: percent velvetleaf control 19 DAT
Procedure: Effect of Tank Mix Applications of HPPD Inhibitors and Sequestrene® 138Fe on Velvetleaf Control. Percent Control Assessed 19 DAT
(§1) A greenhouse experiment is conducted to determine the effect of chelated iron on weed control in the greenhouse. Velvetleaf (Abutilon theophrasti) and common waterhemp (Amaranthus rudis) plants are grown in 4×4-inch pots filled with a greenhouse potting mix. When the plants reached the 2 to 3 inch height (2 to 3 leaf stage), they are sprayed with a reduced rate of an HPPD inhibitor alone or in a tank mix combination with Sequestrene 138Fe at 140 g/ha (equivalent to 8.4 g iron/hectare) or 280 g/ha (equivalent to 16.8 g iron/hectare). […] Observations on percent control are recorded 12, 19, and 25 days after treatment.

[3] = test system: common waterhemp (Amaranthus rudis); test: Greenhouse weed control: HPPD inhibitors with or without Sequestrene 138Fe, common waterhemp; format: in vivo; settings: common waterhemp control 17 DAT
Procedure: as §1
Effect of Tank Mix Applications of Various HPPD Inhibitors and Sequestrene 138Fe on Common Waterhemp Control. Injury Assessed 17 DAT
An experiment is performed to look at the effect of applying iron chelates on control of Common Waterhemp using HPPD-inhibiting herbicides. Experiment design is analogous to that outlined in Experiment 3 above.

[4] = test system: HPPD-tolerant soybean event SYHT04R; test: Glasshouse: post-emergence HPPD herbicide damage with or without Sequestrene 138Fe, 7 DAA; format: in vivo; settings: isoxaflutole, tembotrione
Procedure: (§2) Safening of Various HPPD-inhibiting Herbicides in HPPD-tolerant Soybean Events SYHT04R and SYHT0H2
(§3) An experiment is performed to determine whether the addition of chelating iron to the spray formulation can mitigate foliar bleaching injury from the HPPD herbicides mesotrione, bicyclopyrone, tembotrione, isoxaflutole, topramezone and pyrasulfatole when applied post-emergence to the HPPD-tolerant soybean events SYHT04R and SYHT0H2.
(§4) Soybean plants are grown in a glasshouse (24° C. day, 18° C. night; 65% relative humidity; 16 hour photoperiod). Two replicates are utilised in respect of SYHT0H2 (growth stage V1-V3) and three replicates are utilised in respect of SYHT04R (growth stage V1 to V3). Spray applications are applied post-emergence at […]. Herbicide damage was assessed 7 DAA (Days After Application).

[5] = test system: HPPD-tolerant soybean event SYHT0H2; test: as above; format: in vivo; settings: isoxaflutole, tembotrione
Procedure: as §2, §3, §4

SYHT0H2 soybeans [6] = test: Greenhouse: tank-mix and sequential Sequestrene 138Fe, HPPD-inhibitor maximum injury; format: in vivo, soybean
Procedure: Effect of Tank-mix and Sequential Application of Sequestrene® 138 on Mesotrione (Applied as Callisto®)—Maximum Injury in SYHT0H2 Soybeans
An experiment is conducted in the greenhouse to determine the effect of chelated iron (Sequestrene 138Fe containing 6% iron) on HPPD-inhibitor injury to SYHT0H2 soybeans. Soybeans are grown in pots filled with a greenhouse potting mix. When the plants reach the V2-V3 stage, they are sprayed with an HPPD-inhibitor herbicide applied alone (Treatment 1), or in tank mixture with Sequestrene 138Fe (Treatment 2), or sequentially with Sequestrene 138Fe applied 1 day before the HPPD inhibitor (Treatment 3). Sequestrene 138Fe is applied at 2240 g/ha (equivalent to 134 g iron/ha). All treatments are applied with liquid ammonium sulfate @ 2.5% v/v and a non-ionic surfactant (NIS) @ 0.25% v/v in 150 L/ha water. Observations on percent injury are recorded 5, 11, or 22 days after treatment. Data presented are maximum injury observed during the trial.

SYHT0H2 soybeans [7] = test: Greenhouse: Sequestrene 138Fe rate series, percent injury from HPPD-inhibitors at 7 DAT; format: in vivo, soybean; settings: mesotrione 420, bicyclopyrone 200, tembotrione 368, topramezone 72 g/ha
Procedure: Effect of Sequestrene® 138Fe on Percent Injury from Various HPPD-inhibitors on SYHT0H2 Soybeans. Injury Assessed at Seven Days after Treatment (7 DAT)
SYHT0H2 soybeans are grown in 4×4-inch pots filled with a greenhouse potting mix. When the plants reach the V2-V3 growth stage, they are treated with an HPPD inhibitor applied alone or in a tank mixture with Sequestrene 138Fe at various rates ranging from 140 g product/ha (equivalent to 8.4 g iron/ha) to 2240 g product/ha (equivalent to 134 g iron/ha).

SYHT04R soybean = test: Greenhouse: chelated Fe versus chelated Mn, bicyclopyrone maximum injury; format: in vivo; settings: additive none, maximum injury of 5 and 9 days after treatment
Procedure: Effect of Chelated Fe and Chelated Mn on Safening SYHT04R Soybean from Bicyclopyrone Injury
A greenhouse experiment is conducted to determine if chelating agents containing nutrient elements other than Fe were also effective in safening HPPD herbicide-tolerant soybeans.
SYHT04R soybean plants are grown in 4×4-inch pots filled with a greenhouse potting mix. When the plants reached the V2-V3 growth stage, they are sprayed with an HPPD inhibitor alone or in combination with Sequestrene 138Fe or a solution containing 6% EDTA-chelated Mn. […] Observations on percent injury were recorded 5, and 9 days after treatment. Data presented are maximum injury observed during the experiment.

SYHT04R soybeans = test: Greenhouse: Sequestrene 138Fe safening of HPPD-inhibitors, injury 6 days after treatment; format: in vivo, soybean; settings: 6 days after treatment (maximum injury), mesotrione 420, bicyclopyrone 200, isoxaflutole 280 g/ha
Procedure: Effect of Sequestrene® 138Fe on Various HPPD-inhibitors in SYHT04R Soybeans. Maximum Injury Assessed 6 Days after Treatment
A greenhouse experiment is conducted to determine if Sequestrene® 138Fe was effective in safening various other HPPD herbicide-tolerant soybean events, such as SYHT04R.
SYHT04R soybean plants are grown in 4×4-inch pots filled with a greenhouse potting mix. When the plants reached the V2-V3 growth stage, they are sprayed with an HPPD inhibitor alone or in combination with Sequestrene® 138Fe at 1120 g/ha (equivalent to 67.2 g iron/ha). […] Observations on percent injury are recorded at 6 and 20 days after treatment. Data presented is from the 6 days after treatment rating representing the maximum injury observed during the experiment.

[8] = Sequestrene 138Fe 0 g/ha, g ai/ha: mesotrione 26, isoxaflutole 26, bicyclopyrone 50, tembotrione 46, pyrasulfatole 22, topramezone 18
[9] = Sequestrene 138Fe 140 g/ha tank mix, mesotrione 26, isoxaflutole 26 g ai/ha
[10] = Sequestrene 138Fe 280 g/ha tank mix, g ai/ha: bicyclopyrone 50, tembotrione 46, pyrasulfatole 22, topramezone 18
[11] = Sequestrene 138Fe 1000 g/ha, g ai/ha: mesotrione 200, bicyclopyrone, pyrasulfatole 100, topramazone 50
[12] = Sequestrene 138Fe 1000 g/ha, g ai/ha: mesotrione 800, bicyclopyrone, pyrasulfatole 400, topramazone 200
[13] = no Sequestrene 138Fe, g ai/ha: mesotrione 200, bicyclopyrone, pyrasulfatole 100, topramazone 50
[14] = no Sequestrene 138Fe, g ai/ha: mesotrione 800, bicyclopyrone, pyrasulfatole 400, topramazone 200
[15] = Sequestrene 138Fe 140 g/ha tank mix
[16] = Sequestrene 138Fe 280 g/ha tank mix
[17] = Sequestrene 138Fe 560 g/ha tank mix
[18] = Sequestrene 138Fe 1120 g/ha tank mix
[19] = Sequestrene 138Fe 2240 g/ha tank mix

## O=S(=O)([O-])[O-].[Fe+2] [Ferrous Sulfate (Fe2SO4), iron (II) sulphate (ferrous sulphate)]
SYHT0H2 soybeans [1]
  safening SYHT0H2 soybeans from mesotrione injury: effective

## CS(=O)(=O)c1cc(C(F)(F)F)ccc1C(=O)c1cnoc1C1CC1 [Isoxaflutole, isoxaflutole]
[2]; [8]
  % Injury: 78%
[2]; [9]
  % Injury: 82%
[3]; [8]
  % Injury: 87%
[3]; [9]
  % Injury: 88%

## Cc1nn(C)c(O)c1C(=O)c1ccc(C(F)(F)F)cc1S(C)(=O)=O [Pyrasulfatole, pyrasulfotole]
[2]; [8]
  % Injury: 85%
[2]; [10]
  % Injury: 80%
[4]; [11]
  Herbicide damage SYHT04R: 0
[4]; [12]
  Herbicide damage SYHT04R: 2
[4]; [13]
  Herbicide damage SYHT04R: 4
[4]; [14]
  Herbicide damage SYHT04R: 12
[5]; [11]
  Herbicide damage SYHT0H2: 10
[5]; [12]
  Herbicide damage SYHT0H2: 18
[5]; [13]
  Herbicide damage SYHT0H2: 10
[5]; [14]
  Herbicide damage SYHT0H2: 4
[3]; [8]
  % Injury: 98%
[3]; [10]
  % Injury: 77%

## CS(=O)(=O)c1ccc(C(=O)C2C(=O)CCCC2=O)c(Cl)c1COCC(F)(F)F [Tembotrione, tembotrione]
[2]; [8]
  % Injury: 98%
[2]; [10]
  % Injury: 99%
[3]; [8]
  % Injury: 99%
[3]; [10]
  % Injury: 99%
SYHT0H2 soybeans [6]; in vivo
  % Maximum Injury: 31%

## Cc1c(C(=O)c2cnn(C)c2O)ccc(S(C)(=O)=O)c1C1=NOCC1 [Topramezone, topramezone]
SYHT0H2 soybeans [7]; Sequestrene 138Fe 0 g/ha
  % Injury: 8%
SYHT0H2 soybeans [7]; [15]
  % Injury: 0%
SYHT0H2 soybeans [7]; [16]
  % Injury: 0%
SYHT0H2 soybeans [7]; [17]
  % Injury: 0%
SYHT0H2 soybeans [7]; [18]
  % Injury: 0%
SYHT0H2 soybeans [7]; [19]
  % Injury: 0%
[2]; [8]
  % Injury: 96%
[2]; [10]
  % Injury: 93%
[4]; [11]
  Herbicide damage SYHT04R: 2
[4]; [12]
  Herbicide damage SYHT04R: 3
[4]; [13]
  Herbicide damage SYHT04R: 5
[4]; [14]
  Herbicide damage SYHT04R: 17
[5]; [11]
  Herbicide damage SYHT0H2: 5
[5]; [12]
  Herbicide damage SYHT0H2: 0
[5]; [13]
  Herbicide damage SYHT0H2: 8
[5]; [14]
  Herbicide damage SYHT0H2: 23
[3]; [8]
  % Injury: 100%
[3]; [10]
  % Injury: 99%

## bicyclopyrone
SYHT04R soybean
  % Injury: 29%
SYHT04R soybeans; Sequestrene 138Fe 0 g/ha
  % Injury: 29%
SYHT04R soybeans; Sequestrene 138Fe 1120 g/ha
  % Injury: 7%
SYHT0H2 soybeans [7]; Sequestrene 138Fe 0 g/ha
  % Injury: 23%
SYHT0H2 soybeans [7]; [15]
  % Injury: 12%
SYHT0H2 soybeans [7]; [16]
  % Injury: 10%
SYHT0H2 soybeans [7]; [17]
  % Injury: 1%
SYHT0H2 soybeans [7]; [18]
  % Injury: 0%
SYHT0H2 soybeans [7]; [19]
  % Injury: 0%
[2]; [8]
  % Injury: 100%
[2]; [10]
  % Injury: 100%
[4]; [11]
  Herbicide damage SYHT04R: 5
[4]; [12]
  Herbicide damage SYHT04R: 30
[4]; [13]
  Herbicide damage SYHT04R: 15
[4]; [14]
  Herbicide damage SYHT04R: 42
[5]; [11]
  Herbicide damage SYHT0H2: 3
[5]; [12]
  Herbicide damage SYHT0H2: 25
[5]; [13]
  Herbicide damage SYHT0H2: 13
[5]; [14]
  Herbicide damage SYHT0H2: 40
[3]; [8]
  % Injury: 90%
[3]; [10]
  % Injury: 96%
SYHT0H2 soybeans [6]; Sequestrene 138Fe 2240 g/ha applied 1 day before herbicide (Treatment 3, sequential), mesotrione 420, bicyclopyrone 200, tembotrione 368 g ai/ha
  % Maximum Injury: 12%
SYHT0H2 soybeans [6]; herbicide alone (Treatment 1), mesotrione 420, bicyclopyrone 200, tembotrione 368 g ai/ha, maximum of 5, 11, 22 days after treatment
  % Maximum Injury: 25%
SYHT0H2 soybeans [6]; tank mix with Sequestrene 138Fe 2240 g/ha (Treatment 2, simultaneous), mesotrione 420, bicyclopyrone 200, tembotrione 368 g ai/ha
  % Maximum Injury: 3%

## iron DTPA [Sequestrene 330-Fe]
SYHT0H2 soybeans [1]
  safening SYHT0H2 soybeans from mesotrione injury: effective
